Converted amounts (≈) assume the structure as drawn.
What was measured:
MDA-MB-231 = assay: Cytotoxicity test (MTT, 72 h); settings: Homo sapiens, MDA-MB-231, 72 h, read-out: 50% Inhibiting Concentration value (IC50)
Method: (§1) In order to investigate the antitumor activities of the compounds, a variety of tumor cell lines for test are selected. Cells at logarithmic growth period are inoculated in a 96-well plate overnight, then drugs with a certain gradient concentrations are added, and incubation is carried out in a cell culture chamber (5% CO2, 37° C.) for 72 h.

Hela = assay: Cytotoxicity test (MTT, 72 h); settings: Homo sapiens, read-out: 50% Inhibiting Concentration value (IC50)
Method: as §1

A549 = assay: Cytotoxicity test (MTT, 72 h); settings: Homo sapiens, A549, 72 h, read-out: 50% Inhibiting Concentration value (IC50)
Method: as §1

PC3 = assay: Cytotoxicity test (MTT, 72 h); settings: Homo sapiens, PC-3, 72 h, read-out: 50% Inhibiting Concentration value (IC50)
Method: as §1

ECA-109 = assay: Cytotoxicity test (MTT, 72 h); settings: Homo sapiens, ECa-109, 72 h, read-out: 50% Inhibiting Concentration value (IC50)
Method: as §1

HT-29 = assay: Cytotoxicity test (MTT, 72 h); settings: Homo sapiens, HT-29, 72 h, read-out: 50% Inhibiting Concentration value (IC50)
Method: (§2) Cells at logarithmic growth period are inoculated in a 96-well plate overnight, then drugs with a certain gradient concentrations are added, and incubation is carried out in a cell culture chamber (5% CO2, 37° C.) for 72 h.

[1] = Multi-dose in vivo antitumor activity study, mouse weight (Example 20); parameters: species or system mice; settings: caudal vein once every 2 days
Method: The drugs are administered through the caudal veins of mice once every 2 days for a total of 7 times.
At the end of the treatment cycle, the orbital venous blood of the mice is collected for later blood routine test, the mice are killed by cervical dislocation method, and tumors are removed immediately and photographed. From day 0, the mice in each group are weighed every three days, and the weights are recorded. The weight average value of each group is calculated, and mouse weight variation curve is drawn according to statistical data. At the end of the treatment cycle, tumors are removed from anesthetized mice immediately and weighted, and the tumor weight of each group is recorded. The tumor inhibition rate (%) is calculated according to the following formula: […]

TPC-1 = assay: Cytotoxicity test (MTT, 72 h); settings: Homo sapiens, TPC1, 72 h, read-out: 50% Inhibiting Concentration value (IC50)
Method: as §2

[2] = system: colon cancer cells SW-480; assay: In vivo antitumor activity, tumor volume (Example 19); parameters: species or system mice; settings: for Mouse Tumor Volume: 13.73 mg/kg i.v. once every three days, average, n = 6
[3] = In vivo antitumor activity study, mouse weight (Example 19); parameters: species or system mice; settings: 13.73 mg/kg i.v. once every three days
[4] = Solubility test, equilibrium method, UV-visible spectrophotometry; format: physicochemical; settings: thermodynamic from solid
Method in brief: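 Equilibrium solubility measured by UV-visible spectrophotometry. Reference solution of known concentration (C0) prepared in methanol; test concentration calculated as Cx=(Ax/A0)C0 from absorbance ratio of test to reference solution.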

PANC-1 = assay: Cytotoxicity test (MTT, 72 h); settings: Homo sapiens, PANC-1, 72 h, read-out: 50% Inhibiting Concentration value (IC50)
Method: as §2

SW-480 = assay: Cytotoxicity test (MTT, 72 h); settings: Homo sapiens, SW480, 72 h, read-out: 50% Inhibiting Concentration value (IC50)
Method: as §2

BGC-823 = assay: Cytotoxicity test (MTT, 72 h); settings: Homo sapiens, BGC-823, 72 h, read-out: 50% Inhibiting Concentration value (IC50)
Method: as §1

HepG2 = assay: Cytotoxicity test (MTT, 72 h); settings: Homo sapiens, HepG2, 72 h, read-out: 50% Inhibiting Concentration value (IC50)
Method: as §1

CCc1c2c(nc3ccc(OC(=O)OCCOCCOCCOCc4cn(CCO[C@H]5O[C@@H](CO)[C@H](O)[C@@H](O)[C@@H]5O)nn4)cc13)-c1cc3c(c(=O)n1C2)COC(=O)[C@]3(O)CC [Compound 58]
IC50 (MDA-MB-231): 521 nM | IC50 (Hela): 3.65 µM | IC50 (A549): 3.04 µM | IC50 (PC3): 2530 nM | IC50 (ECA-109): 4.38 µM | IC50 (HT-29): 5.25 µM | Mouse Weight ([1]; day 0, high-dose group (H) 13.73 mg/kg): 16.69 g | Mouse Weight ([1]; day 0, low-dose group (L) 3.433 mg/kg): 17.94 g | Mouse Weight ([1]; day 0, medium-dose group (M) 6.865 mg/kg): 16.55 g | Mouse Weight ([1]; day 3, high-dose group (H) 13.73 mg/kg): 17.60 g | Mouse Weight ([1]; day 3, low-dose group (L) 3.433 mg/kg): 16.34 g | Mouse Weight ([1]; day 3, medium-dose group (M) 6.865 mg/kg): 16.61 g | Mouse Weight ([1]; day 6, high-dose group (H) 13.73 mg/kg): 16.26 g | Mouse Weight ([1]; day 6, low-dose group (L) 3.433 mg/kg): 16.36 g | Mouse Weight ([1]; day 6, medium-dose group (M) 6.865 mg/kg): 15.81 g | Mouse Weight ([1]; day 9, high-dose group (H) 13.73 mg/kg): 17.28 g | Mouse Weight ([1]; day 9, low-dose group (L) 3.433 mg/kg): 17.00 g | Mouse Weight ([1]; day 9, medium-dose group (M) 6.865 mg/kg): 17.23 g | Mouse Weight ([1]; day 12, high-dose group (H) 13.73 mg/kg): 16.88 g | Mouse Weight ([1]; day 12, low-dose group (L) 3.433 mg/kg): 16.96 g | Mouse Weight ([1]; day 12, medium-dose group (M) 6.865 mg/kg): 16.17 g | Mouse Weight ([1]; day 15, high-dose group (H) 13.73 mg/kg): 16.61 g | Mouse Weight ([1]; day 15, low-dose group (L) 3.433 mg/kg): 16.41 g | Mouse Weight ([1]; day 15, medium-dose group (M) 6.865 mg/kg): 15.46 g | Mouse Weight ([1]; day 18, high-dose group (H) 13.73 mg/kg): 16.06 g | Mouse Weight ([1]; day 18, low-dose group (L) 3.433 mg/kg): 17.28 g | Mouse Weight ([1]; day 18, medium-dose group (M) 6.865 mg/kg): 16.47 g | Mouse Weight ([1]; day 21, high-dose group (H) 13.73 mg/kg): 16.50 g | Mouse Weight ([1]; day 21, low-dose group (L) 3.433 mg/kg): 16.97 g | Mouse Weight ([1]; day 21, medium-dose group (M) 6.865 mg/kg): 16.65 g | IC50 (TPC-1): 11.2 µM | Mouse Tumor Volume ([2]; day 0): 235.22 mm^3 | Mouse Tumor Volume ([2]; day 3): 202.08 mm^3 | Mouse Tumor Volume ([2]; day 6): 98.87 mm^3 | Mouse Tumor Volume ([2]; day 9): 118.41 mm^3 | Mouse Tumor Volume ([2]; day 12): 80.63 mm^3 | Mouse Tumor Volume ([2]; day 15): 38.37 mm^3 | Mouse Tumor Volume ([2]; day 18): 40.03 mm^3 | Mouse Tumor Volume ([2]; day 21): 7.16 mm^3 | inhibition rates on colon cancer cell SW-480 compared with CPT-11 (in words) ([2]; dosage two-thirds of the molar fraction of CPT-11): significantly higher inhibition rates | Mouse Weight ([3]; day 0): 23.57 g | Mouse Weight ([3]; day 3): 23.71 g | Mouse Weight ([3]; day 6): 24.00 g | Mouse Weight ([3]; day 9): 24.76 g | Mouse Weight ([3]; day 12): 24.93 g | Mouse Weight ([3]; day 15): 24.34 g | Mouse Weight ([3]; day 18): 24.04 g | Mouse Weight ([3]; day 21): 24.12 g | solubility ([4]; aqueous with cosolvent or surfactant or cyclodextrin): 5330 µg/mL (≈ 6.23 mM) | solubility ([4]; pH 7.4, aqueous buffer): 1580 µg/mL (≈ 1.84 mM) | solubility ([4]; saline or isotonic): 3590 µg/mL (≈ 4.2 mM) | solubility ([4]; water): 2550 µg/mL (≈ 2.98 mM) | IC50 (PANC-1): 3.65 µM | IC50 (SW-480): 254 nM | IC50 (BGC-823): 212 nM | IC50 (HepG2): 625 nM
